Source: article PMC7932521, “2-aminobenzimidazoles for leishmaniasis: From initial hit discovery to in vivo profiling” (PLoS Neglected Tropical Diseases, 2021)

Assays:
[1] = system: L. major MHOM/IL/81/Friedlin; experiment: VL/CL panel, intracellular amastigotes; format: cell-based; conditions: Leishmania major; average; read-out: IC-50 L. major MHOM/IL/81/Friedlin
Method: (§1) For the antileishmania in vitro assays, 3×10^4 PMM/well were seeded in 96-well plates. After 24h, 5×10^5 amastigotes/well were added and incubated for 2h at 37°C. Next, the compounds in 4-fold serial dilutions were added and the plates were further incubated for 5 days (37°C, 5% CO2). Parasite burdens were assessed using an inverted microscope after Giemsa staining. The results were expressed as percent reduction in parasite burdens compared to negative control wells (100% growth) and IC50 values were determined. Values represent the geometric mean of at least two independent experiments. Miltefosine was used as the positive control in all plates.

[2] = system: L. braziliensis MHOM/BR/94/H3227; experiment: VL/CL panel, intracellular amastigotes; format: cell-based; conditions: Leishmania braziliensis; average; read-out: IC-50 L. braziliensis MHOM/BR/94/H3227
Method: as §1

[3] = Mouse single-dose pharmacokinetics; format: in vivo; conditions: female, BALB/c, plasma, single oral dose 10 mg/kg

Question: With `Cn1nccc1C(=O)Nc1nc2ccc(C#N)cc2n1CC(C)(C)C` [Compound 29, O=C(Nc1n(CC(C)(C)C)c(c2n1)cc(C#N)cc2)c3n(C)ncc3] as the molecule, how does the IC50 [1] read?
Answer: Its IC50 is 1.71 µM.

Question: And the IC50 [2]?
Answer: Its IC50 is 24.8 µM.

Question: What about the AUC(0-t) [3] of the same molecule?
Answer: The AUC(0-t) was 8.16 µg·h/mL.

Question: What about the Cmax [3] of the same molecule?
Answer: Its Cmax is 1 µg/mL.

Question: And the bioavailability [3]?
Answer: The bioavailability was 72%.

Question: And the half-life [3]?
Answer: The half-life was 7.9 h.

Question: For `Cn1nc(C(F)(F)F)cc1C(=O)Nc1nc2ccc(C#N)cc2n1CC(F)(F)F` [Compound 39, O=C(c1cc(C(F)(F)F)nn1C)Nc2nc(ccc(C#N)c3)c3n2CC(F)(F)F], which IC50 [1] is on record?
Answer: Its IC50 is 3.04 µM.
